Data as given in patent publication US11524940B1, “Inhibitors of cysteine proteases and methods of use thereof” (priority 2020, dated 2022).

What follows are compounds tested against 229E Mpro (Human coronavirus 229E (HCoV-229E), UniProt P0C6X1) (assay: 229E Mpro activity). Details: 229E Mpro EC50.
Assay type: biochemical
Protocol: Compounds are assayed using standard methods to assess compound activity and IC50. […] The assay buffer contains 20 mM of Tris-HCl (pH 7.3), 100 mM of NaCl, 1 mM of EDTA, 5mM of TCEP and 0.1% BSA.

229E Mpro, sequence (P0C6X1 2966-3267 limits assumed): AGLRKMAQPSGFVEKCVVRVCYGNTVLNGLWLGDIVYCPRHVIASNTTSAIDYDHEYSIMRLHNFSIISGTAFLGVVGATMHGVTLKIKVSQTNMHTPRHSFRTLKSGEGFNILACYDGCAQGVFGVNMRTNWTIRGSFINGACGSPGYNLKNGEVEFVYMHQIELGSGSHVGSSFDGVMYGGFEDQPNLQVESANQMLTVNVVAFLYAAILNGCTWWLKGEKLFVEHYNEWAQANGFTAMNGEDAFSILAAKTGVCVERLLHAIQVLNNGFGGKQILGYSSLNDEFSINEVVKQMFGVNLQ

Compound	EC50 [µM]
COc1cccc2[nH]c(C(=O)N3CC4(CC3C(=O)N[C@H](C#N)C[C@@H]3CCCNC3=O)CC(F)(F)C4)cc12 (single isomer, unassigned) [723 (Isomer 1)]	10 to 30

Same assay, conditions: read-out: 229E Mpro EC50

Compound	EC50 [µM]
COc1cccc2[nH]c(C(=O)N[C@@H](CC(C)C)C(=O)N[C@H](C#N)Cc3cncn3C)cc12 [Compound 225]	> 30
COc1cccc2[nH]c(C(=O)N[C@@H](Cc3cccc(Cl)c3)C(=O)N[C@H](C#N)C[C@@H]3CCNC3=O)cc12 [Compound 153]	10 to 30
CC(C)(C)OC(=O)N1CCCCC12CCN(C(CC1CC1)C(=O)N[C@H](C#N)C[C@@H]1CCNC1=O)C2=O (single isomer, unassigned) [473 (Isomer 2)]	> 30
COc1cccc2[nH]c(C(=O)N3CC4(CCCC4)C[C@H]3C(=O)N[C@H](C#N)C[C@@H]3CCNC3=O)cc12 (single isomer, unassigned) [401 (Isomer 1)]	< 2
COc1cccc2[nH]c(C(=O)N3CC(C45CC(C4)C5)C[C@H]3C(=O)N[C@H](C#N)C[C@@H]3CCNC3=O)cc12 (single isomer, unassigned) [385 (Isomer 2)]	< 2
COc1cccc2[nH]c(C(=O)N[C@H](CC3CC3)C(=O)N[C@@H](C#N)C[C@@H]3CCCNC3=O)cc12 (single isomer, unassigned) [491 (Isomer 4)]	< 2
COc1cccc2[nH]c(C(=O)N[C@@H](CC3CC3)C(=O)N[C@H](C#N)C[C@H]3C(=O)Nc4ccccc43)cc12 [Compound 932]	< 2
COc1cccc2[nH]c(C(=O)N[C@@H](CC(C)C)C(=O)NC(C#N)Cc3n[nH]c4ccccc34)cc12 (mixture of isomers) [Compound 245, N-[(1S)-1-[[1-cyano-2-(1H-indazol-3-yl)ethyl]carbamoyl]-3-methyl-butyl]-4-methoxy-1H-indole-2-carboxamide]	> 30
CC[C@H]1CN(C(=O)c2cc3c(OC)cccc3[nH]2)[C@@H]1C(=O)N[C@H](C#N)C[C@@H]1CCNC1=O [Compound 391, (2S,3S)-N-((S)-1-cyano-2-((S)-2-oxopyrrolidin-3-yl)ethyl)-3-ethyl-1-(4-methoxy-1H-indole-2-carbonyl)azetidine-2-carboxamide]	> 30
N#C[C@H](C[C@@H]1CCNC1=O)NC(=O)C1CC2(CCCCC2)CN1C(=O)c1cc2cccc(Cl)c2[nH]1 (single isomer, unassigned) [984 (Isomer 2)]	> 30
COc1cccc2[nH]c(C(=O)N3CC4(CCC4)CC3C(=O)N[C@H](C#N)C[C@@H]3CCCNC3=O)cc12 (single isomer, unassigned) [719 (Isomer 2)]	< 2
N#C[C@H](C[C@@H]1CCCNC1=O)NC(=O)[C@H](CC1CC1)NC(=O)c1cc2c(Cl)ccc(F)c2[nH]1 [Compound 826]	< 2
COCCOCCOc1cccc2[nH]c(C(=O)NC(CC(C)(C)C)C(=O)NC(C#N)CC3CCCNC3=O)cc12 (single isomer, unassigned) [875 (Isomer 3)]	10 to 30
COc1cccc2[nH]c(C(=O)N3C[C@H]4CCC[C@H]4[C@H]3C(=O)N[C@H](C#N)C[C@@H]3CCNC3=O)cc12 [Compound 305]	< 2
CN1CCCC[C@]12CCN([C@@H](CC1CC1)C(=O)N[C@H](C#N)C[C@@H]1CCNC1=O)C2=O [Compound 273C, (2S)-N-[(1S)-1-cyano-2-[(3S)-2-oxopyrrolidin-3-yl]ethyl]-3-cyclopropyl-2-[(5R)-6-methyl-1-oxo-2,6-diazaspiro[4.5]decan-2-yl]propanamide]	2 to 10
COc1cccc2[nH]c(C(=O)N[C@@H](CC(C)C)C(=O)N[C@@H](C[C@@H]3CCNC3=O)C(=O)CO)cc12 [Compound 741, N-[(1S)-1-[[(1S)-3-hydroxy-2-oxo-1-[[(3S)-2-oxopyrrolidin-3-yl]methyl]propyl]carbamoyl]-3-methyl-butyl]-4-methoxy-1H-indole-2-carboxamide]	< 2
